Laboratory results from PubChem BioAssay (NCI).
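Briefly, cells in 96-well plates were exposed to five compound concentrations for 48 h, and endpoints were estimated by linear interpolation. At the TGI there is no net growth.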

Assays:
Test in all cases: growth of human tumour cells (NCI), 48 h
COLO 205 colon = tested on: COLO 205 colon
HOP-62 NSCLC = tested on: HOP-62 NSCLC
HOP-92 NSCLC = tested on: HOP-92 NSCLC
K-562 leukemia = tested on: K-562 leukemia
KM12 colon = tested on: KM12 colon
LOX IMVI melanoma = tested on: LOX IMVI melanoma
MALME-3M melanoma = tested on: MALME-3M melanoma
NCI-H23 lung = tested on: NCI-H23 lung
NCI-H460 lung = tested on: NCI-H460 lung
NCI/ADR-RES ovarian = tested on: NCI/ADR-RES ovarian
OVCAR-3 ovarian = tested on: OVCAR-3 ovarian
SNB-19 CNS = tested on: SNB-19 CNS
SW-620 colon = tested on: SW-620 colon

`CC(Oc1ccc(Cl)cc1Cl)C(=O)NN1C(=O)CC(=O)NC1=S` (configuration not stated) was tested, and the TGI (COLO 205 colon) was greater than 100 µM, the TGI (HOP-62 NSCLC) was greater than 100 µM and the TGI (HOP-92 NSCLC) was greater than 100 µM. For the same compound, the TGI (K-562 leukemia) was greater than 100 µM, the TGI (KM12 colon) was greater than 100 µM and the TGI (LOX IMVI melanoma) was greater than 100 µM. The TGI (MALME-3M melanoma) was greater than 100 µM, the TGI (NCI-H23 lung) was greater than 100 µM and the TGI (NCI-H460 lung) was greater than 100 µM. It also gave a TGI (NCI/ADR-RES ovarian) greater than 100 µM, a TGI (OVCAR-3 ovarian) greater than 100 µM and a TGI (SNB-19 CNS) greater than 100 µM. The TGI (SW-620 colon) was greater than 100 µM.
With `CC(C)(C)c1cc(C(C)(C)C)c(SSc2c(C(C)(C)C)cc(C(C)(C)C)c(O)c2O)c(O)c1O` the TGI (COLO 205 colon) was 27.5 µM, the TGI (HOP-92 NSCLC) was 31.9 µM and the TGI (K-562 leukemia) was 26.2 µM. For the same compound, the TGI (KM12 colon) was 25.4 µM, the TGI (LOX IMVI melanoma) was 23.6 µM and the TGI (MALME-3M melanoma) was 36 µM. The TGI (NCI-H23 lung) was 22.8 µM, the TGI (NCI-H460 lung) was 13.2 µM and the TGI (NCI/ADR-RES ovarian) was 70 µM. It also gave a TGI (SNB-19 CNS) of 25.5 µM and a TGI (SW-620 colon) of 24 µM.
`COc1cc(C2c3cc4c(cc3[C@@H](Nc3cnc5ccccc5c3)C3COC(=O)[C@H]23)OCO4)cc(OC)c1O` (some centres not stated) gave a TGI (COLO 205 colon) of 3.39 µM, a TGI (HOP-62 NSCLC) of 0.481 µM and a TGI (HOP-92 NSCLC) of 2.81 µM. The TGI (K-562 leukemia) was 7.33 µM, the TGI (KM12 colon) was 2.67 µM and the TGI (MALME-3M melanoma) was 2.43 µM. It also gave a TGI (NCI-H23 lung) of 2.02 µM, a TGI (NCI-H460 lung) of 0.397 µM and a TGI (NCI/ADR-RES ovarian) of 7.93 µM. The TGI (OVCAR-3 ovarian) was 3.9 µM and the TGI (SNB-19 CNS) was 9.53 µM.
For `O=C(Cn1c(C(=O)/C=C/c2ccc(Cl)c(Cl)c2)nc2ccccc21)c1ccccc1`, the TGI (COLO 205 colon) was 36.2 µM, the TGI (HOP-62 NSCLC) was greater than 100 µM and the TGI (HOP-92 NSCLC) was 96.1 µM. The TGI (K-562 leukemia) was greater than 100 µM, the TGI (KM12 colon) was 56.5 µM and the TGI (LOX IMVI melanoma) was 39.1 µM. It also gave a TGI (MALME-3M melanoma) of 86.2 µM, a TGI (NCI-H23 lung) greater than 100 µM and a TGI (NCI-H460 lung) of 39.4 µM. The TGI (NCI/ADR-RES ovarian) was 73 µM, the TGI (OVCAR-3 ovarian) was 31.9 µM and the TGI (SNB-19 CNS) was 86.1 µM. For the same compound, the TGI (SW-620 colon) was greater than 100 µM.
Work on `COc1ccc2[nH]c(=O)cc(C)c2c1[N+](=O)[O-]` yielded a TGI (COLO 205 colon) greater than 100 µM, a TGI (HOP-62 NSCLC) greater than 100 µM and a TGI (HOP-92 NSCLC) greater than 100 µM. It also gave a TGI (K-562 leukemia) greater than 100 µM, a TGI (KM12 colon) greater than 100 µM and a TGI (LOX IMVI melanoma) greater than 100 µM. For the same compound, the TGI (MALME-3M melanoma) was greater than 100 µM, the TGI (NCI-H23 lung) was greater than 100 µM and the TGI (NCI-H460 lung) was greater than 100 µM. It also gave a TGI (OVCAR-3 ovarian) greater than 100 µM, a TGI (SNB-19 CNS) greater than 100 µM and a TGI (SW-620 colon) greater than 100 µM.
For `COc1ccc(C(=O)c2[nH]c(Nc3cc(C)ccn3)c(C(=S)Nc3ccccc3)c2N)cc1`, the TGI (COLO 205 colon) was 41.5 µM, the TGI (HOP-62 NSCLC) was 72.2 µM and the TGI (K-562 leukemia) was greater than 100 µM. The TGI (KM12 colon) was 39.2 µM, the TGI (LOX IMVI melanoma) was 42.2 µM and the TGI (MALME-3M melanoma) was 30.8 µM. It also gave a TGI (NCI-H23 lung) of 72.6 µM, a TGI (NCI-H460 lung) of 31.5 µM and a TGI (NCI/ADR-RES ovarian) of 24.3 µM. For the same compound, the TGI (OVCAR-3 ovarian) was greater than 100 µM, the TGI (SNB-19 CNS) was 56 µM and the TGI (SW-620 colon) was 71 µM.
Work on `CC1(c2cccc(C(F)(F)F)c2)CC(c2cccc(C(F)(F)F)c2)=C(C#N)C(=C(C#N)C#N)N1` (configuration not stated) yielded a TGI (COLO 205 colon) of 30.8 µM, a TGI (HOP-62 NSCLC) of 32.7 µM and a TGI (HOP-92 NSCLC) of 10.6 µM. For the same compound, the TGI (K-562 leukemia) was 34.2 µM, the TGI (KM12 colon) was 32.9 µM and the TGI (LOX IMVI melanoma) was 34.1 µM. For the same compound, the TGI (MALME-3M melanoma) was 32.4 µM, the TGI (NCI-H23 lung) was 38.2 µM and the TGI (NCI-H460 lung) was 45.8 µM. It also gave a TGI (NCI/ADR-RES ovarian) of 43 µM, a TGI (OVCAR-3 ovarian) of 24.6 µM and a TGI (SNB-19 CNS) of 40 µM. For the same compound, the TGI (SW-620 colon) was 52.1 µM.
Compound `CC1=NN(c2ccccc2Cl)C2(C1)C(Cl)C(=O)N2c1nc2ccccc2s1` (configuration not stated) has a TGI (COLO 205 colon) greater than 100 µM, a TGI (HOP-62 NSCLC) greater than 100 µM and a TGI (HOP-92 NSCLC) greater than 100 µM. The TGI (K-562 leukemia) was greater than 100 µM, the TGI (KM12 colon) was greater than 100 µM and the TGI (LOX IMVI melanoma) was 33.7 µM. It also gave a TGI (MALME-3M melanoma) greater than 100 µM, a TGI (NCI-H23 lung) greater than 100 µM and a TGI (NCI-H460 lung) greater than 100 µM. It also gave a TGI (NCI/ADR-RES ovarian) greater than 100 µM, a TGI (OVCAR-3 ovarian) of 53.1 µM and a TGI (SNB-19 CNS) greater than 100 µM. For the same compound, the TGI (SW-620 colon) was greater than 100 µM.
`Nc1nc(N)c2ncn(Cc3ccccc3CO)c2n1` was tested, and the TGI (COLO 205 colon) was greater than 100 µM, the TGI (HOP-62 NSCLC) was greater than 100 µM and the TGI (HOP-92 NSCLC) was greater than 100 µM. It also gave a TGI (K-562 leukemia) greater than 100 µM, a TGI (KM12 colon) greater than 100 µM and a TGI (LOX IMVI melanoma) greater than 100 µM. It also gave a TGI (MALME-3M melanoma) greater than 100 µM, a TGI (NCI-H23 lung) greater than 100 µM and a TGI (NCI-H460 lung) greater than 100 µM. It also gave a TGI (NCI/ADR-RES ovarian) greater than 100 µM, a TGI (OVCAR-3 ovarian) greater than 100 µM and a TGI (SNB-19 CNS) greater than 100 µM. It also gave a TGI (SW-620 colon) greater than 100 µM.
`COC(=O)/C=C1\C(=O)Nc2ccc(Br)cc21` showed a TGI (COLO 205 colon) of 3.45 µM, a TGI (HOP-62 NSCLC) of 4.61 µM and a TGI (HOP-92 NSCLC) of 4.92 µM. For the same compound, the TGI (K-562 leukemia) was greater than 28 µM, the TGI (KM12 colon) was 4.8 µM and the TGI (LOX IMVI melanoma) was 2.25 µM. The TGI (MALME-3M melanoma) was 7.75 µM, the TGI (NCI-H23 lung) was 3.52 µM and the TGI (NCI-H460 lung) was 5.05 µM. The TGI (NCI/ADR-RES ovarian) was 4.49 µM, the TGI (OVCAR-3 ovarian) was 2.95 µM and the TGI (SNB-19 CNS) was 11.4 µM. It also gave a TGI (SW-620 colon) of 3.22 µM.
`COc1cnc2oc3ccc(O)cc3c2c1-c1ccccc1` gave a TGI (COLO 205 colon) greater than 100 µM, a TGI (HOP-62 NSCLC) greater than 100 µM and a TGI (HOP-92 NSCLC) greater than 100 µM. The TGI (K-562 leukemia) was greater than 100 µM, the TGI (KM12 colon) was greater than 100 µM and the TGI (LOX IMVI melanoma) was greater than 100 µM. The TGI (MALME-3M melanoma) was greater than 100 µM, the TGI (NCI-H23 lung) was greater than 100 µM and the TGI (NCI-H460 lung) was greater than 100 µM. For the same compound, the TGI (NCI/ADR-RES ovarian) was greater than 100 µM, the TGI (OVCAR-3 ovarian) was greater than 100 µM and the TGI (SW-620 colon) was greater than 100 µM.
With `O=c1c2cc([N+](=O)[O-])ccc2[nH]n1Cc1ccccc1Cl` the TGI (COLO 205 colon) was greater than 100 µM, the TGI (HOP-62 NSCLC) was greater than 100 µM and the TGI (HOP-92 NSCLC) was 93.9 µM. For the same compound, the TGI (K-562 leukemia) was greater than 100 µM, the TGI (KM12 colon) was greater than 100 µM and the TGI (LOX IMVI melanoma) was greater than 100 µM. It also gave a TGI (MALME-3M melanoma) greater than 100 µM, a TGI (NCI-H23 lung) greater than 100 µM and a TGI (NCI-H460 lung) greater than 100 µM. The TGI (NCI/ADR-RES ovarian) was greater than 100 µM, the TGI (OVCAR-3 ovarian) was greater than 100 µM and the TGI (SNB-19 CNS) was greater than 100 µM. For the same compound, the TGI (SW-620 colon) was greater than 100 µM.
Compound `CS(C)(=O)=Nn1c(=O)n2n(c1=O)[C@H]1CC[C@@H]2C1` has a TGI (COLO 205 colon) greater than 100 µM, a TGI (HOP-62 NSCLC) greater than 100 µM and a TGI (HOP-92 NSCLC) greater than 100 µM. For the same compound, the TGI (K-562 leukemia) was greater than 100 µM, the TGI (KM12 colon) was greater than 100 µM and the TGI (LOX IMVI melanoma) was greater than 100 µM. For the same compound, the TGI (MALME-3M melanoma) was greater than 100 µM, the TGI (NCI-H23 lung) was greater than 100 µM and the TGI (NCI-H460 lung) was greater than 100 µM. For the same compound, the TGI (NCI/ADR-RES ovarian) was greater than 100 µM, the TGI (OVCAR-3 ovarian) was greater than 100 µM and the TGI (SNB-19 CNS) was greater than 100 µM. It also gave a TGI (SW-620 colon) greater than 100 µM.
